Source: patent publication US20260083830A1, “BIODEGRADABLE POLYMERIC PARTICLES FOR DELIVERY OF POSITIVELY CHARGED THERAPEUTIC AGENTS” (REGENTS OF THE UNIVERSITY OF MICHIGAN, priority 2022, published 2026)

Key:
[1] = previous studies; cited from earlier work
EAE [2] = assay: EAE murine model, intravenous versus subcutaneous administration of remote loaded nanoparticles (Example VIII); type: in vivo, C57BL/6J mice; details: 100 ug subcutaneous by the tail base; after 60 days
[3] = Net charge of peptide at neutral pH; type: physicochemical; details: owing to 2 Arginine residues
EAE [4] = assay: EAE murine model, effects of remote loaded nanoparticles on Treg response, EAE scores (Example IX); type: in vivo, C57BL/6J mice; details: 10 ug subcutaneous by the tail base
Description: EAE was induced in a murine model as described in Example VIII. There were 3 treatment groups and one group that only received phosphate-buffered saline (PBS). For the treatment groups, 10 ug of self-antigen in 1 mL PBS was aliquoted from the MOG 38-50 loaded PLGA nanoparticles batch based on loading % determined by UPLC. The first treatment group received remote loaded nanoparticles injected subcutaneously by the tail base. The second treatment group received remote loaded nanoparticles injected intravenously in the tail. The third treatment group received 10 ug of free MOG 38-50 peptide injected subcutaneously by the tail base. EAE was assessed daily using the 0 to 5 clinical score scale described in Example VII.

| Compound | charge at neutral pH [1] | EAE clinical score (EAE [2]) | charge [3] | EAE score (EAE [4]; after day 8) | EAE score (EAE [4]; day 8) |
| --- | --- | --- | --- | --- | --- |
| C[C@@H](O)[C@@H]1NC(=O)[C@H](CCCCN)NC(=O)[C@@H](Cc2c[nH]c3ccccc23)NC(=O)[C@H](Cc2ccccc2)NC(=O)[C@@H](NC(=O)[C@H](N)Cc2ccccc2)CSSC[C@@H](C(=O)N[C@H](CO)[C@@H](C)O)NC1=O [octreotide] | ~+1.7 | – | – | – | – |
| CCNC(=O)[C@@H]1CCCN1C(=O)[C@H](CCCNC(=N)N)NC(=O)[C@H](CC(C)C)NC(=O)[C@@H](CC(C)C)NC(=O)[C@H](Cc1ccc(O)cc1)NC(=O)[C@H](CO)NC(=O)[C@H](Cc1c[nH]c2ccccc12)NC(=O)[C@H](Cc1c[nH]cn1)NC(=O)[C@@H]1CCC(=O)N1 [leuprolide] | ~+1 | – | – | – | – |
| MOG 38-50 (GWYRSPFSRVVHL) [free MOG 38-50 peptide] | – | 3.5 | > +1 | ~3.0 | ~2.5 |
